Test results from PubChem BioAssay (NCI).
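Cultured in 96-well plates, cells were exposed to test compound for 48 hours across five concentrations. TGI is the concentration that stops growth completely.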

Tests used:
Assay in all cases: NCI-60 cell line screen, 48 h
COLO 205 colon = tested on: COLO 205 colon
IGROV1 ovarian = tested on: IGROV1 ovarian
SN12C renal = tested on: SN12C renal
TK-10 renal = tested on: TK-10 renal
MOLT-4 leukemia = tested on: MOLT-4 leukemia
U251 CNS = tested on: U251 CNS
NCI-H226 lung = tested on: NCI-H226 lung
SR leukemia = tested on: SR leukemia
SK-OV-3 ovarian = tested on: SK-OV-3 ovarian
HS 578T breast = tested on: HS 578T breast
OVCAR-3 ovarian = tested on: OVCAR-3 ovarian
786-0 renal = tested on: 786-0 renal
M14 melanoma = tested on: M14 melanoma
A549 NSCLC = tested on: A549 NSCLC
OVCAR-8 ovarian = tested on: OVCAR-8 ovarian
SK-MEL-5 melanoma = tested on: SK-MEL-5 melanoma
T-47D breast = tested on: T-47D breast
UACC-62 melanoma = tested on: UACC-62 melanoma
SF-539 CNS = tested on: SF-539 CNS
EKVX NSCLC = tested on: EKVX NSCLC
RXF 393 renal = tested on: RXF 393 renal
NCI-H522 lung = tested on: NCI-H522 lung
CCRF-CEM leukemia = tested on: CCRF-CEM leukemia
K-562 leukemia = tested on: K-562 leukemia
SF-295 CNS = tested on: SF-295 CNS
NCI-H23 lung = tested on: NCI-H23 lung
OVCAR-5 ovarian = tested on: OVCAR-5 ovarian
HT29 colon = tested on: HT29 colon
HCT-116 colon = tested on: HCT-116 colon
MDA-N = tested on: MDA-N
PC-3 prostate = tested on: PC-3 prostate
HOP-62 NSCLC = tested on: HOP-62 NSCLC
MDA-MB-231 breast = tested on: MDA-MB-231 breast
DU-145 prostate = tested on: DU-145 prostate
SF-268 CNS = tested on: SF-268 CNS
A498 renal = tested on: A498 renal
UACC-257 melanoma = tested on: UACC-257 melanoma
NCI/ADR-RES ovarian = tested on: NCI/ADR-RES ovarian
HCC-2998 colon = tested on: HCC-2998 colon
MCF7 breast = tested on: MCF7 breast
MALME-3M melanoma = tested on: MALME-3M melanoma
CAKI-1 renal = tested on: CAKI-1 renal
MDA-MB-435 = tested on: MDA-MB-435
SK-MEL-2 melanoma = tested on: SK-MEL-2 melanoma
OVCAR-4 ovarian = tested on: OVCAR-4 ovarian
RPMI-8226 leukemia = tested on: RPMI-8226 leukemia
SK-MEL-28 melanoma = tested on: SK-MEL-28 melanoma
LOX IMVI melanoma = tested on: LOX IMVI melanoma
BT-549 breast = tested on: BT-549 breast
HL-60(TB) leukemia = tested on: HL-60(TB) leukemia
SW-620 colon = tested on: SW-620 colon
NCI-H460 lung = tested on: NCI-H460 lung
ACHN renal = tested on: ACHN renal
HOP-92 NSCLC = tested on: HOP-92 NSCLC
HCT-15 colon = tested on: HCT-15 colon
KM12 colon = tested on: KM12 colon
SNB-19 CNS = tested on: SNB-19 CNS

Compound: CC1(C)Oc2ccc3c(=O)cc(-c4ccc(F)cc4)oc3c2C1C(=O)O (stereo unspecified)
- TGI (COLO 205 colon): > 100 µM
- TGI (IGROV1 ovarian): > 100 µM
- TGI (SN12C renal): > 100 µM
- TGI (TK-10 renal): > 100 µM
- TGI (MOLT-4 leukemia): > 100 µM
- TGI (U251 CNS): > 100 µM
- TGI (NCI-H226 lung): > 100 µM
- TGI (SR leukemia): > 100 µM
- TGI (SK-OV-3 ovarian): > 100 µM
- TGI (HS 578T breast): > 100 µM
- TGI (OVCAR-3 ovarian): > 100 µM
- TGI (786-0 renal): > 100 µM
- TGI (M14 melanoma): > 100 µM
- TGI (A549 NSCLC): > 100 µM
- TGI (OVCAR-8 ovarian): > 100 µM
- TGI (SK-MEL-5 melanoma): > 100 µM
- TGI (T-47D breast): > 100 µM
- TGI (UACC-62 melanoma): > 100 µM
- TGI (SF-539 CNS): > 100 µM
- TGI (EKVX NSCLC): > 100 µM
- TGI (RXF 393 renal): > 100 µM
- TGI (NCI-H522 lung): > 100 µM
- TGI (CCRF-CEM leukemia): > 100 µM
- TGI (K-562 leukemia): > 100 µM
- TGI (SF-295 CNS): > 100 µM
- TGI (NCI-H23 lung): > 100 µM
- TGI (OVCAR-5 ovarian): > 100 µM
- TGI (HT29 colon): > 100 µM
- TGI (HCT-116 colon): > 100 µM
- TGI (MDA-N): > 100 µM
- TGI (PC-3 prostate): > 100 µM
- TGI (HOP-62 NSCLC): > 100 µM
- TGI (MDA-MB-231 breast): > 100 µM
- TGI (DU-145 prostate): > 100 µM
- TGI (SF-268 CNS): > 100 µM
- TGI (A498 renal): > 100 µM
- TGI (UACC-257 melanoma): > 100 µM
- TGI (NCI/ADR-RES ovarian): > 100 µM
- TGI (HCC-2998 colon): > 100 µM
- TGI (MCF7 breast): > 100 µM
- TGI (MALME-3M melanoma): > 100 µM
- TGI (CAKI-1 renal): 54.6 µM
- TGI (MDA-MB-435): > 100 µM
- TGI (SK-MEL-2 melanoma): > 100 µM

Compound: CC1(C)N=C(N)N=C(N)N1c1cccc(OCCOc2ccc([N+](=O)[O-])cc2)c1
- TGI (COLO 205 colon): > 100 µM
- TGI (OVCAR-4 ovarian): > 100 µM
- TGI (IGROV1 ovarian): > 100 µM
- TGI (RPMI-8226 leukemia): > 100 µM
- TGI (SN12C renal): > 100 µM
- TGI (TK-10 renal): > 100 µM
- TGI (MOLT-4 leukemia): > 100 µM
- TGI (U251 CNS): > 100 µM
- TGI (SK-MEL-28 melanoma): > 100 µM
- TGI (LOX IMVI melanoma): > 100 µM
- TGI (SR leukemia): > 100 µM
- TGI (BT-549 breast): > 100 µM
- TGI (SK-OV-3 ovarian): > 100 µM
- TGI (HL-60(TB) leukemia): > 100 µM
- TGI (HS 578T breast): > 100 µM
- TGI (OVCAR-3 ovarian): > 100 µM
- TGI (SW-620 colon): > 100 µM
- TGI (786-0 renal): > 100 µM
- TGI (M14 melanoma): > 100 µM
- TGI (A549 NSCLC): > 100 µM
- TGI (OVCAR-8 ovarian): > 100 µM
- TGI (NCI-H460 lung): > 100 µM
- TGI (SK-MEL-5 melanoma): > 100 µM
- TGI (ACHN renal): > 100 µM
- TGI (SF-539 CNS): > 100 µM
- TGI (EKVX NSCLC): > 100 µM
- TGI (RXF 393 renal): > 100 µM
- TGI (NCI-H522 lung): > 100 µM
- TGI (CCRF-CEM leukemia): > 100 µM
- TGI (K-562 leukemia): > 100 µM
- TGI (SF-295 CNS): > 100 µM
- TGI (NCI-H23 lung): > 100 µM
- TGI (OVCAR-5 ovarian): > 100 µM
- TGI (HT29 colon): > 100 µM
- TGI (HOP-92 NSCLC): > 100 µM
- TGI (HCT-116 colon): > 100 µM
- TGI (HCT-15 colon): > 100 µM
- TGI (MDA-N): > 100 µM
- TGI (PC-3 prostate): > 100 µM
- TGI (HOP-62 NSCLC): > 100 µM
- TGI (MDA-MB-231 breast): > 100 µM
- TGI (DU-145 prostate): > 100 µM
- TGI (KM12 colon): > 100 µM
- TGI (SF-268 CNS): > 100 µM
- TGI (A498 renal): > 100 µM
- TGI (SNB-19 CNS): > 100 µM
- TGI (UACC-257 melanoma): > 100 µM
- TGI (MCF7 breast): > 100 µM
- TGI (MALME-3M melanoma): > 100 µM
- TGI (CAKI-1 renal): > 100 µM
- TGI (MDA-MB-435): > 100 µM
- TGI (SK-MEL-2 melanoma): > 100 µM
